# Literature values, collected in US20040101549A1, “Treatments” (priority 2002, published 2004).
substance,measurement,setting,value
polyestradiol phosphate [PEP],overall and cardiovascular mortality versus maximum androgen blockade,"915 patients randomized, over 6 years, Hedlund & Henriksson",equivalent
same,long-term cardiovascular protection,"epidemiological comparison to an age-standardized population, Aro",significant long-term cardiovascular protection
same,reduction of short-term cardiovascular morbidity,"intramuscular, first line CaP therapy, Mikkola et al",over 90%
